Laboratory results reported in patent publication US20260356804A1, “SODIUM CHANNEL BLOCKING COMPOUNDS, DERIVATIVES THEREOF, AND METHODS OF THEIR USE” (LATIGO BIOTHERAPEUTICS, INC., priority 2022, published 2026).
Where two headings read alike, the source gives them in different places.

Biological target: T1, human Nav1.8/b3 (Homo sapiens, UniProt Q9Y5Y9)
T1 construct: expressed in transfected cells; host or cells: CHO
Experiment: Compound Profiling Human NaV1.8/β3 Cell Line—SyncroPatch384PE Assay (automated patch clamp, stably transfected CHO cells)
Type: cell-based
Conditions: Nav1.8/b3 CHO cells

[1] = P1 (IC50, resting state block), P1 measurement, resting state block, holding potential −120 mV, fourth set of compounds
[2] = P2 (IC50, inactivated state block), P2 measurement, inactivated state block, inactivation step −35 mV 10 sec, fourth set of compounds
[3] = P1 (IC50, resting state block), P1 measurement, resting state block, holding potential −120 mV, second set of compounds
[4] = P2 (IC50, inactivated state block), P2 measurement, inactivated state block, inactivation step −35 mV 10 sec, second set of compounds
[5] = P1 (IC50, resting state block), P1 measurement, resting state block, holding potential −120 mV, third set of compounds
[6] = P2 (IC50, inactivated state block), P2 measurement, inactivated state block, inactivation step −35 mV 10 sec, third set of compounds

T1 sequence (Q9Y5Y9 whole entry): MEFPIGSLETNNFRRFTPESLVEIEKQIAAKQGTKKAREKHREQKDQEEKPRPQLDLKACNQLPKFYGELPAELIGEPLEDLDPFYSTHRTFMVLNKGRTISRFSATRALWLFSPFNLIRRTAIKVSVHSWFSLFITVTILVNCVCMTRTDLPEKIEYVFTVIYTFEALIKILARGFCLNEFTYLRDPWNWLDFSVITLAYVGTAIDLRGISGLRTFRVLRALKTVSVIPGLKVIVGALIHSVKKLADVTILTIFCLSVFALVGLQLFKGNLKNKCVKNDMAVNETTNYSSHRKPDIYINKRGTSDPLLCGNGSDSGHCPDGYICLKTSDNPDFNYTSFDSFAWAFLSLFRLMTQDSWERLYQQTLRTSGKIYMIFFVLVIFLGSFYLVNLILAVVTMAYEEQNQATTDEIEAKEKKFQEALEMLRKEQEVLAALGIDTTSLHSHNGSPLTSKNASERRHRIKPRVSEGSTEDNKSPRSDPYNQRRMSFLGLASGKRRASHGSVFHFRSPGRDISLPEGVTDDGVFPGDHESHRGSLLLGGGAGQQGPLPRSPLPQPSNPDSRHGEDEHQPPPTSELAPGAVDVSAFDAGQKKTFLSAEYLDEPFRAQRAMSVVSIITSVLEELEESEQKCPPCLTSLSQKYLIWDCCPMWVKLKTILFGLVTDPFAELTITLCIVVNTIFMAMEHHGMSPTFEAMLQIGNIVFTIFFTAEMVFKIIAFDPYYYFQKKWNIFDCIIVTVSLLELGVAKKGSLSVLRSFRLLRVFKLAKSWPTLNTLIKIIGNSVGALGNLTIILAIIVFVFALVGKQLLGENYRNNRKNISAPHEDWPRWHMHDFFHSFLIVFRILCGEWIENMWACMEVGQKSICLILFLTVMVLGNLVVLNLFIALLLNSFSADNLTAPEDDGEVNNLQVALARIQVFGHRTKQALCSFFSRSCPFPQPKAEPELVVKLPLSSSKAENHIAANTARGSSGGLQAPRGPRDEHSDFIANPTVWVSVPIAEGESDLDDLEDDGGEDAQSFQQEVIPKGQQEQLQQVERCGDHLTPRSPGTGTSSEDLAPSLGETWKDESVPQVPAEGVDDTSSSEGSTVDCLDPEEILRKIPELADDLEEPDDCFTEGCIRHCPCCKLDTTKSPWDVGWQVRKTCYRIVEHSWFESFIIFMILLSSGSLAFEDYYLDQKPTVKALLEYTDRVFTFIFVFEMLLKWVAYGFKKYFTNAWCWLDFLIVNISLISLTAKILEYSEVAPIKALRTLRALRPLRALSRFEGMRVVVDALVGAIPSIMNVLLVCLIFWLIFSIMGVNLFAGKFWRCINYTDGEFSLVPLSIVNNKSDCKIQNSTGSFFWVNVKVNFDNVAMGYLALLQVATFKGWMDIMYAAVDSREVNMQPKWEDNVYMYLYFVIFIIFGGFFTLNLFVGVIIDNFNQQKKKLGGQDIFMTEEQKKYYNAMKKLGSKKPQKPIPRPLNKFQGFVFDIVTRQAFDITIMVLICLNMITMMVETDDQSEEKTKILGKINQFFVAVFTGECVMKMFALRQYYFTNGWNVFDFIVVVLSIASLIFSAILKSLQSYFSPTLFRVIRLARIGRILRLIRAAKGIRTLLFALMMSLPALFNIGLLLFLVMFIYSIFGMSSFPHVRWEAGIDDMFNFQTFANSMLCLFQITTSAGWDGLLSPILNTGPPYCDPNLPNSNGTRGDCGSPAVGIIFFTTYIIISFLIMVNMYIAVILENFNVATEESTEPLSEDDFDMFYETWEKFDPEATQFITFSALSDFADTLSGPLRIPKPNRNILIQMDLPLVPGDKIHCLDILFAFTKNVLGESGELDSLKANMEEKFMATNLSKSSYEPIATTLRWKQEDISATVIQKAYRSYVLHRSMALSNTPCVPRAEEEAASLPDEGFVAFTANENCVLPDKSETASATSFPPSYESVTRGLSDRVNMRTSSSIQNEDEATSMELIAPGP
T1 sequence (Q9NY72 23-215 partner): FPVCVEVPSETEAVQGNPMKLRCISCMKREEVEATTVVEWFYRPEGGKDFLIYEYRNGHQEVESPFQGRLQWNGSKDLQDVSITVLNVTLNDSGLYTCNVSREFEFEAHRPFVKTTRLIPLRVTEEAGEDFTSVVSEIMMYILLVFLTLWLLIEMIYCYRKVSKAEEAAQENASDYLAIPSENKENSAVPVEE

| Compound | IC50 [1] [nM] | IC50 [2] [nM] | IC50 [3] [nM] | IC50 [4] [nM] | also measured |
| --- | --- | --- | --- | --- | --- |
| Cc1nc(F)ccc1Oc1ncc(C(F)(F)F)c(C)c1C(=O)Nc1cccc([S@@](C)(=O)=NC(=O)[C@H](C)O)c1 [Example 13D, 2-((6-fluoro-2-methylpyridin-3-yl)oxy)-N-(3-((R)—N—((S)-2-hydroxypropanoyl)-S-methylsulfonimidoyl)phenyl)-4-methyl-5-(trifluoromethyl)nicotinamide] | < 5 | < 5 | – | – | – |
| Cc1nc(F)ccc1Oc1cc(C(F)(F)F)c(Cl)cc1C(=O)Nc1cccc([S@@](C)(=O)=NCCN)c1 [Example 14A, (R)—N-(3-(N-(2-aminoethyl)-S-methylsulfonimidoyl)phenyl)-5-chloro-2-((6-fluoro-2-methylpyridin-3-yl)oxy)-4-(trifluoromethyl)benzamide] | – | – | – | – | IC50 (P1 (IC50, resting state block), P1 measurement, resting state block, holding potential −120 mV, first set of compounds): < 5 nM; IC50 (P2 (IC50, inactivated state block), P2 measurement, inactivated state block, inactivation step −35 mV 10 sec, first set of compounds): < 5 nM |
| Cc1nc(F)ccc1Oc1cc(C(F)(F)F)ccc1C(=O)Nc1cccc([S@@](C)(=O)=NC(=O)CN)c1 [Example 14B, (R)-2-((6-fluoro-2-methylpyridin-3-yl)oxy)-N-(3-(N-glycyl-S-methylsulfonimidoyl)phenyl)-4-(trifluoromethyl)benzamide] | – | – | 5 to 50 | 5 to 50 | – |
| Cc1nc(F)ccc1Oc1ncc(C(F)(F)F)c(C)c1C(=O)Nc1cccc([S@@](C)(=O)=NC(=O)[C@H]2CCCO2)c1 [Example 14D, 2-((6-fluoro-2-methylpyridin-3-yl)oxy)-4-methyl-N-(3-((R)—S-methyl-N—((R)-tetrahydrofuran-2-carbonyl)sulfonimidoyl)phenyl)-5-(trifluoromethyl)nicotinamide] | < 5 | < 5 | – | – | – |
| Cc1nc(F)ccc1Oc1ccc(C(F)(F)F)c(F)c1C(=O)Nc1cccc([S@@](C)(=O)=NC(=O)[C@@H](C)N)c1 [Example 15B, N-(3-((R)—N-(D-alanyl)-S-methylsulfonimidoyl)phenyl)-2-fluoro-6-((6-fluoro-2-methylpyridin-3-yl)oxy)-3-(trifluoromethyl)benzamide] | – | – | < 5 | < 5 | – |
| Cc1nc(F)ccc1Oc1ncc(C(F)(F)F)c(C)c1C(=O)Nc1cccc([S@@](C)(=O)=NC(=O)[C@H]2CCOC2)c1 [Example 15D, 2-((6-fluoro-2-methylpyridin-3-yl)oxy)-4-methyl-N-(3-((R)—S-methyl-N—((S)-tetrahydrofuran-3-carbonyl)sulfonimidoyl)phenyl)-5-(trifluoromethyl)nicotinamide] | < 5 | < 5 | – | – | – |
| Cc1nc(F)ccc1Oc1ccc(C(F)(F)F)c(F)c1C(=O)Nc1cccc([S@@](C)(=O)=NC(=O)CN)c1 [Example 16B, (R)-2-fluoro-6-((6-fluoro-2-methylpyridin-3-yl)oxy)-N-(3-(N-glycyl-S-methylsulfonimidoyl)phenyl)-3-(trifluoromethyl)benzamide] | – | – | < 5 | < 5 | – |
| COc1cc(C#N)ccc1Oc1ncc(-c2ccc(C(F)F)cc2)c(C)c1C(=O)Nc1ccnc([S@@](C)(=N)=O)c1 [Example 16C, (S)-2-(4-cyano-2-methoxyphenoxy)-5-(4-(difluoromethyl)phenyl)-4-methyl-N-(2-(S-methylsulfonimidoyl)pyridin-4-yl)nicotinamide] | – | – | – | – | IC50 [5]: > 200 nM; IC50 [6]: > 200 nM |
| Cc1nc(F)ccc1Oc1ncc(C(F)(F)F)c(C)c1C(=O)Nc1cccc([S@@](C)(=O)=NC(=O)[C@@H](C)O)c1 [Example 16D, 2-((6-fluoro-2-methylpyridin-3-yl)oxy)-N-(3-((R)—N—((R)-2-hydroxypropanoyl)-S-methylsulfonimidoyl)phenyl)-4-methyl-5-(trifluoromethyl)nicotinamide] | < 5 | < 5 | – | – | – |
| CNCC(=O)N=[S@](C)(=O)c1cccc(NC(=O)c2c(Oc3ccc(F)nc3C)ccc(C(F)(F)F)c2F)c1 [Example 17B, (R)-2-fluoro-6-((6-fluoro-2-methylpyridin-3-yl)oxy)-N-(3-(S-methyl-N-(methylglycyl)sulfonimidoyl)phenyl)-3-(trifluoromethyl)benzamide] | – | – | < 5 | < 5 | – |
| COc1cc(C#N)ccc1Oc1ncc(-c2ccc(C(F)F)cc2)c(C)c1C(=O)Nc1ccnc([S@](C)(=N)=O)c1 [Example 17C, (R)-2-(4-cyano-2-methoxyphenoxy)-5-(4-(difluoromethyl)phenyl)-4-methyl-N-(2-(S-methylsulfonimidoyl)pyridin-4-yl)nicotinamide] | – | – | – | – | IC50 [5]: > 200 nM; IC50 [6]: > 200 nM |
| Cc1nc(F)ccc1Oc1ncc(C(F)(F)F)c(C)c1C(=O)Nc1cccc([S@@](C)(=O)=NC(=O)[C@@H]2C[C@@H](O)CN2)c1 [Example 17D, 2-((6-fluoro-2-methylpyridin-3-yl)oxy)-N-(3-((R)—N-((2S,4R)-4-hydroxypyrrolidine-2-carbonyl)-S-methylsulfonimidoyl)phenyl)-4-methyl-5-(trifluoromethyl)nicotinamide] | < 5 | < 5 | – | – | – |
| Cc1nc(F)ccc1Oc1ccc(C(F)(F)F)c(F)c1C(=O)Nc1cccc([S@@](C)(=O)=NC(=O)[C@H](C)O)c1 [Example 18B, 2-fluoro-6-((6-fluoro-2-methylpyridin-3-yl)oxy)-N-(3-((R)—N—((S)-2-hydroxypropanoyl)-S-methylsulfonimidoyl)phenyl)-3-(trifluoromethyl)benzamide] | – | – | < 5 | < 5 | – |
| Cc1nc(F)ccc1Oc1nnc(C(F)(F)F)c(C)c1C(=O)Nc1cccc([S@@](C)(=O)=NC(=O)[C@H](C)O)c1 [Example 18D, 3-((6-fluoro-2-methylpyridin-3-yl)oxy)-N-(3-((R)—N—((S)-2-hydroxypropanoyl)-S-methylsulfonimidoyl)phenyl)-5-methyl-6-(trifluoromethyl)pyridazine-4-carboxamide] | < 5 | < 5 | – | – | – |
| Cc1nc(F)ccc1Oc1ccc(C(F)(F)F)c(F)c1C(=O)Nc1cccc([S@@](C)(=O)=NC(=O)[C@@H](C)O)c1 [Example 19B, 2-fluoro-6-((6-fluoro-2-methylpyridin-3-yl)oxy)-N-(3-((R)—N—((R)-2-hydroxypropanoyl)-S-methylsulfonimidoyl)phenyl)-3-(trifluoromethyl)benzamide] | – | – | < 5 | < 5 | – |
| Cc1nc(F)ccc1Oc1nnc(C(F)(F)F)c(C)c1C(=O)Nc1cccc([S@@](C)(=O)=NC(=O)[C@@H](C)O)c1 [Example 19D, 3-((6-fluoro-2-methylpyridin-3-yl)oxy)-N-(3-((R)—N—((R)-2-hydroxypropanoyl)-S-methylsulfonimidoyl)phenyl)-5-methyl-6-(trifluoromethyl)pyridazine-4-carboxamide] | 5 to 50 | 5 to 50 | – | – | – |
| COc1cc(C#N)ccc1Oc1ncc(-c2ccc(C#N)cc2)c(C)c1C(=O)Nc1cccc([S@](C)(=N)=O)c1 [Example 20C, (R)-2-(4-cyano-2-methoxyphenoxy)-5-(4-cyanophenyl)-4-methyl-N-(3-(S-methylsulfonimidoyl)phenyl)nicotinamide] | – | – | – | – | IC50 [5]: 5 to 50 nM; IC50 [6]: 5 to 50 nM |
| Cc1nc(F)ccc1Oc1nnc(C(F)(F)F)c(C)c1C(=O)Nc1cccc([S@@](C)(=O)=NC(=O)CO)c1 [Example 20D, (R)-3-((6-fluoro-2-methylpyridin-3-yl)oxy)-N-(3-(N-(2-hydroxyacetyl)-S-methylsulfonimidoyl)phenyl)-5-methyl-6-(trifluoromethyl)pyridazine-4-carboxamide] | 5 to 50 | 5 to 50 | – | – | – |
| Cc1nc(F)ccc1Oc1ccc(C(F)(F)F)c(F)c1C(=O)Nc1cccc([S@@](C)(=O)=NC(=O)[C@@H]2CCCN2)c1 [Example 21B, (S)—N—((R)-(3-(2-fluoro-6-((6-fluoro-2-methylpyridin-3-yl)oxy)-3-(trifluoromethyl)benzamido)phenyl)(methyl)(oxo)-λ^6-sulfaneylidene)pyrrolidine-2-carboxamide] | – | – | 5 to 50 | 5 to 50 | – |
| COc1cc(C#N)ccc1Oc1ncc(-c2ccc(C)cc2)c(C)c1C(=O)Nc1cccc([S@](C)(=N)=O)c1 [Example 21C, (R)-2-(4-cyano-2-methoxyphenoxy)-4-methyl-N-(3-(S-methylsulfonimidoyl)phenyl)-5-(p-tolyl)nicotinamide] | – | – | – | – | IC50 [5]: < 5 nM; IC50 [6]: < 5 nM |
| Cc1nc(F)ccc1Oc1nnc(C(F)(F)F)c(C)c1C(=O)Nc1cccc([S@@](C)(=O)=NC(=O)[C@@H](C)N)c1 [Example 21D, N-(3-((R)—N-(D-alanyl)-S-methylsulfonimidoyl)phenyl)-3-((6-fluoro-2-methylpyridin-3-yl)oxy)-5-methyl-6-(trifluoromethyl)pyridazine-4-carboxamide] | < 5 | < 5 | – | – | – |
| Cc1nc(F)ccc1Oc1ccc(C(F)(F)F)c(C)c1C(=O)Nc1cccc([S@@](C)(=O)=NC(=O)[C@@H]2CCCN2)c1 [Example 22B] | – | – | < 5 | < 5 | – |
| COc1cc(C#N)ccc1Oc1ncc(-c2ccc(C)cn2)c(C)c1C(=O)Nc1cccc([S@](C)(=N)=O)c1 [Example 22C, (R)-6-(4-cyano-2-methoxyphenoxy)-4,5-dimethyl-N-(3-(S-methylsulfonimidoyl)phenyl)-[2,3-bipyridine]-5-carboxamide] | – | – | – | – | IC50 (P1 measurement, resting state block, holding potential −120 mV, third set of compounds, read-out: P1 (IC50, resting state block)): 50 to 100 nM; IC50 (P2 measurement, inactivated state block, inactivation step −35 mV 10 sec, third set of compounds, read-out: P2 (IC50, inactivated state block)): 50 to 100 nM |
